For two compounds, Ki results are on record in PMC4471549 (Angewandte Chemie (International Ed. in English), 2015).

One assay addresses T1, STAT5b (SH2 domain) (Homo sapiens, UniProt P51692).
T1 sequence (P51692 1-787 limits assumed): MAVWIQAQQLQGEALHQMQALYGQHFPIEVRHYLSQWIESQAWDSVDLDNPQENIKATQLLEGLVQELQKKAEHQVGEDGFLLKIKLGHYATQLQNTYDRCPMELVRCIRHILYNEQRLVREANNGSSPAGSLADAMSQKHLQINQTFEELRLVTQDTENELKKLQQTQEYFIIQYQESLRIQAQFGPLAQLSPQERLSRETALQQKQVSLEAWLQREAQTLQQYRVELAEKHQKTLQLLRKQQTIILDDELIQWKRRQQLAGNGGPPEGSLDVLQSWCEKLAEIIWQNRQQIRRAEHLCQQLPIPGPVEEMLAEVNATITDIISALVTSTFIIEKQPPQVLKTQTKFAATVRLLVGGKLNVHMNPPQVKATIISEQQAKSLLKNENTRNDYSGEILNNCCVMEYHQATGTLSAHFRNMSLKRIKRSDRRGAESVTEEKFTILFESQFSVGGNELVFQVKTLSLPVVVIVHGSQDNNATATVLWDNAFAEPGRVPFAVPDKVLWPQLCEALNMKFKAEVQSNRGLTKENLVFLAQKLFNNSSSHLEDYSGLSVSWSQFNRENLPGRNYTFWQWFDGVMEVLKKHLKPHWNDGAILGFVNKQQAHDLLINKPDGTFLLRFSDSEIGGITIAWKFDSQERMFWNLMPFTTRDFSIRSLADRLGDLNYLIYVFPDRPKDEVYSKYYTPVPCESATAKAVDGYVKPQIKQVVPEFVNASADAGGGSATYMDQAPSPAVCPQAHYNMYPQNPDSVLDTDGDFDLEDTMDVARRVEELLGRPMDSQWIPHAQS
The experiment in a line: competitive fluorescence polarization assay. Type of assay: binding. (In general: Fluorescence polarisation rises when a labelled molecule tumbles more slowly, as on binding a larger partner.)

A further assay deals with T2, STAT5a (SH2 domain) (Homo sapiens, UniProt P42229).
T2 sequence (P42229 1-794): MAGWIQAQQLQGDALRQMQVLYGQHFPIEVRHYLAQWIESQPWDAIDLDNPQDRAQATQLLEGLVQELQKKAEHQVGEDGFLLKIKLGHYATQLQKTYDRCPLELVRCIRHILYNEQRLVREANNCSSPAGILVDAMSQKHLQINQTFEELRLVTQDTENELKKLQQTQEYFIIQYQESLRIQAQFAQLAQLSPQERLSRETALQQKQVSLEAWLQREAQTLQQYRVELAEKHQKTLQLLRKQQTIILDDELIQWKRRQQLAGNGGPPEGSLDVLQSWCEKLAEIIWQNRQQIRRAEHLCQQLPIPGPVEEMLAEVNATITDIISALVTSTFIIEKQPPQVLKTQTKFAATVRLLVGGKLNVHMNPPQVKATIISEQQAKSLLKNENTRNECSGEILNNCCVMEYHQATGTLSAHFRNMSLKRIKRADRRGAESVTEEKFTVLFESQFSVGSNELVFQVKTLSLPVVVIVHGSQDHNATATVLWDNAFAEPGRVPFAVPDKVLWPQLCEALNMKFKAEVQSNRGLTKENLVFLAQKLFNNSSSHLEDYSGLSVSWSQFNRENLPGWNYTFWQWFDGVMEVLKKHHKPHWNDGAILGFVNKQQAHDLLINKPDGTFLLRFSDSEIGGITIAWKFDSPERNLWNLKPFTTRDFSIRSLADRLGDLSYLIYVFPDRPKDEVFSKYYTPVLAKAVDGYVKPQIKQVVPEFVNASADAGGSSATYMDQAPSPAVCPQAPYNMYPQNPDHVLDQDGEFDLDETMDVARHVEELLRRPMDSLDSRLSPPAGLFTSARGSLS
Put plainly: competitive fluorescence polarization assay. In kind it is binding.

By Ki is commonly meant a dissociation constant, usually derived from enzyme kinetics or from competition with a known ligand.

For `O=C(NCCc1ccc(OP(=O)(O)O)c(OP(=O)(O)O)c1)OCC1c2ccccc2-c2ccccc21` [compound 7, Fmoc-protected dopamine bisphosphate], the Ki on STAT5b (SH2 domain) came to 0.45 ± 0.04 µM; at STAT5a (SH2 domain) it was 16 ± 0.8 µM.

On to `COC(=O)[C@H](Cc1ccc(OP(=O)(O)O)c(OP(=O)(O)O)c1)NC(=O)OCC1c2ccccc2-c2ccccc21` [compound 8, Fmoc-protected L-Dopa methyl ester bisphosphate], for which the results for the Ki on STAT5b (SH2 domain) and at STAT5a (SH2 domain) were 0.46 ± 0.08 µM and 7.8 ± 1 µM, respectively.
